# Measured values from patent US7943631B2, “Method of treating drug addiction using dextro-morphine” (MCW Research Foundation, Inc., priority 2007, dated 2011).
# Where two headings read alike, the source gives them in different places.
# Legend:
# [1] = cited from earlier work; for block or reversal of the (+)-morphine-induced attenuation of systemic (−)-morphine-produced antinociception: pretreatment
# [2] = tested on: mice; assay: Tail-flick response after intrathecal injection, mouse spinal cord; conditions: for (−)-morphine-produced tail-flick inhibition after pretreatment given alone (did not affect): 10 μg intrathecal alone, 45 min before (−)-morphine 1 μg, measured 15 min after; for reversal of the (+)-morphine-induced attenuation of (−)-morphine-produced tail-flick inhibition: intrathecal with (+)-morphine 10 pg, BD1047 1-10 μg, (+)-pentazocine 0.1-10 μg, in a dose-dependent manner
# [3] = tested on: rats; assay: Conditioned place preference (CPP), drugs given systemically; type: in vivo, rat; conditions: for effect given alone on baseline place conditioning (CPP or conditioned place aversion): 3 μg/kg i.p. alone, rats treated s.c. with saline vehicle
# [4] = tested on: rats; assay: Conditioned place preference, (−)-morphine and (+)-morphine microinjected into the Acb shell; type: in vivo, rat
# [5] = tested on: extracellular dopamine in the Acb shell; assay: Microdialysis of extracellular dopamine in the Acb shell after microinjection into the VTA, urethane-anesthetized rats; type: in vivo, rat
# Experimental: Groups of rats were microinjected with endomorphin-1 (1, 3 or 10 μg) or vehicle into the VTA (A). In other groups of rats, (−)-naloxone (4 or 40 ng) or vehicle was co-microinjected into the VTA with endomorphin-1 (10 μg). The perfusates from the microdialysis probe at the nucleus accumbens shell were collected every 15 min from 30 min before microinjection and continuously collected for another 120 min (A) or 105 min (B) after microinjection. The perfusates were then analyzed their dopamine level. […] (B) For the group of rats injected with different dose of (−)-naloxone+endomorphin-1 versus vehicle+endomorphin-1, Finteraction (18, 150)=3.338, Ftreatment (2, 150)=7.671, Ftime (9, 150)=11.17, *P<0.01; only the data of the dopamine level after the 0 min time point were used for the statistic analysis; the group of rats microinjected with vehicle alone in (B) was not included in the statistic analysis.
# . The perfusates were then analyzed their dopamine level. […]; only the data of the dopamine level after the 0 min time point were used for statistic analysis; the vehicle pretreatment followed by vehicle microinjected group was not included in the statistic analysis.
# Groups of rats were microinjected with a various dose of endomorphin-1 (1, 3 and 10 μg) or vehicle given into the VTA and the release of dopamine from the Acb shell were studied. […] The dopamine level returned to baseline 60 min thereafter (FIG. 8A). To determine if the increased release of dopamine induced by endomorphin-1 is mediated by the stimulation of μ-opioid receptors, the effect of (−)-naloxone on the increased release of dopamine induced by endomorphin-1 was then studied.
# [6] = tested on: rats
# [7] = cited from earlier work; for production of conditioned place preference or aversion: 4 mg/kg s.c., given systemically, Mucha and Herz 1986; for block of the CPP produced by (−)-morphine: Olmstead and Burns 2005
compound,measurement,setting,value
"CC(C)=CCN1CCC2(C)c3cc(O)ccc3CC1C2C (single isomer, unassigned; (+)) [(+)-pentazocine]","effect against morphine, both given spinally","[1]; 13 μg against morphine 700 ng, mice, Mei and Pasternak 2002",without effect against morphine
same,"effect on (−)-morphine-produced analgesia, systemic administration","[1]; 5 or 10 mg/kg, Chien and Pasternak 1994",antagonizes (−)-morphine-produced analgesia
same,(−)-morphine-produced tail-flick inhibition after pretreatment given alone (did not affect),[2],8.89 ± 0.53 s
same,reversal of the (+)-morphine-induced attenuation of (−)-morphine-produced tail-flick inhibition,[2],reversed
CN1CC[C@]23c4c5ccc(O)c4O[C@H]2[C@@H](O)C=C[C@H]3[C@H]1C5 [(+)-morphine],effect given alone on baseline place conditioning (CPP or conditioned place aversion),[3],did not affect the baseline place conditioning
same,effect given alone on baseline place conditioning (CPP or conditioned place aversion),[3]; listed as dextro-morphine,did not produce CPP nor conditioned place aversion
same,attenuation of (−)-morphine-produced CPP at higher dose,"[3]; i.p. pretreatment 100 μg/kg, 1 h before (−)-morphine sulfate 5 mg/kg s.c.",did not attenuate the (−)-morphine-produced CPP
same,attenuation of (−)-morphine-produced CPP,"[3]; i.p. pretreatment 0.1 to 3 μg/kg, 1 h before (−)-morphine sulfate 5 mg/kg s.c.",dose-dependently attenuated the (−)-morphine-produced CPP
same,dose of maximal inhibition of the morphine-produced CPP (U-shaped dose-response curve),"[3]; i.p., dose range 0.1 to 100 μg/kg",3 µg/kg
same,attenuation of (−)-morphine-produced conditioned place preference,"[4]; 0.1 to 10 pg into the Acb shell, 45 min before (−)-morphine 5 μg, same site",dose-dependently attenuated the (−)-morphine-produced conditioned place preference
same,production of conditioned place preference given alone,"[4]; 3 to 100 pg into the Acb shell, alone",did not produce any conditioned place preference
same,attenuation of (−)-morphine-produced conditioned place preference at higher doses,"[4]; 30, 100 and 1000 pg into the Acb shell, 45 min before (−)-morphine 5 μg",did not attenuate the (+)-morphine-produced conditioned place preference
same,dose of maximal inhibition (U-shape dose-response curve),"[4]; into the Acb shell, dose range 0.1 to 1000 pg",3 pg
same,block of the endomorphin-1-induced increase of extracellular dopamine,"[5]; 3 pg into the VTA, 45 min before endomorphin-1 10 μg",completely blocked the increase of the extracellular dopamine in the Acb shell
same,effect on basal levels of extracellular dopamine,[5]; microinjection into the VTA,did not affect the basal levels of extracellular dopamine in the Acb shell
same,block of the nicotine-produced increase of conditioned place preference at single dose,"[6]; 0.3 pg into the Acb, nicotine 20 μg",completely block the nicotine-produced increase of the conditioned place preference
same,block of the nicotine-produced increase of conditioned place preference,"[6]; pretreatment 0.03 to 3 pg into the Acb, nicotine 20 μg",blocked dose-dependently
same,production of conditioned place preference or aversion,[7],does not produce any conditioned place preference nor does it produce any conditioned place aversion
same,attenuation of antinociception produced by (−)-morphine given systemically,"[1]; pretreated systemically, Wu et al., 2007",attenuates the antinociception produced by (−)-morphine given systemically
same,effect on (−)-morphine-produced tail-flick inhibition,"[2]; 10 pg intrathecal, 45 min before (−)-morphine 1 μg intrathecal",attenuated the (−)-morphine-produced tail-flick inhibition
C=CCN1CC[C@]23c4c5ccc(O)c4O[C@H]2C(=O)CC[C@]3(O)[C@H]1C5 [(+)-naloxone],block or reversal of the (+)-morphine-induced attenuation of systemic (−)-morphine-produced antinociception,"[1]; Wu et al., 2007",blocked or reversed
"CN1CC[C@]23c4c5ccc(O)c4O[C@H]2[C@@H](O)C=C[C@H]3[C@H]1C5.O=S(=O)(O)O [(−)-morphine sulfate, (−)-Morphine sulfate]",production of CPP at higher dose,"[3]; rats, s.c., 10 mg/kg",produced no more increase of the CPP
same,production of CPP,"[3]; rats, s.c., 1 and 5 mg/kg",dose-dependently produced CPP
same,production of conditioned place preference at higher dose,[4]; 10 μg into the Acb shell,produced no further increase of conditioned place preference
same,production of conditioned place preference,[4]; 2.5 or 5 μg into the Acb shell,dose-dependently produced conditioned place preference
same,production of conditioned place preference or aversion,[7],produces marked conditioned place preference
"Br.Br.CN(C)CCN(C)CCc1ccc(Cl)c(Cl)c1 [BD1047, N-[2-(3,4-Dichlorophenyl)ethyl]-N-methyl-2-(dimethylamino)ethylamine dihydrobromide]",effect given alone on the morphine-produced CPP,"[3]; 3 mg/kg i.p. alone, morphine sulfate 5 mg/kg s.c.",did not affect the morphine-produced CPP
same,effect given alone on baseline place preference,"[3]; 3 mg/kg i.p. alone, rats treated with saline vehicle",nor did it affect the baseline place preference
same,reversal of the attenuation of (−)-morphine-produced CPP induced by (+)-morphine,"[3]; 1, 3 or 6 mg/kg i.p. with (+)-morphine 3 μg/kg, 1 h before morphine sulfate 5 mg/kg s.c.",dose-dependently reversed the attenuation of the morphine-produced CPP
same,block or reversal of the (+)-morphine-induced attenuation of systemic (−)-morphine-produced antinociception,"[1]; Wu et al., 2007",blocked or reversed
same,(−)-morphine-produced tail-flick inhibition after pretreatment given alone (did not affect),[2],9.19 ± 0.42 s
same,reversal of the (+)-morphine-induced attenuation of (−)-morphine-produced tail-flick inhibition,[2],reversed
C=CCN1CC[C@]23c4c5ccc(O)c4O[C@H]2/C(=N/N=C2\CC[C@@]4(O)[C@H]6Cc7ccc(O)c8c7[C@@]4(CCN6CC=C)[C@H]2O8)CC[C@@]3(O)[C@H]1C5 [naloxonazine],block of the CPP produced by (−)-morphine,[7],blocked
O=C1CC[C@@]2(O)[C@H]3Cc4ccc(O)c5c4[C@@]2(CCN3CC2CC2)[C@H]1O5 [naltrexone],block of the CPP produced by (−)-morphine,[7],blocked
CN1CCCC1c1cccnc1 (stereo not shown) [nicotine],production of conditioned place preference at higher dose,[6]; 40 μg microinjected into the Acb,produced less increase of the conditioned place preference than that of 20 μg of nicotine
same,production of conditioned place preference,[6]; 5 to 20 μg microinjected into the Acb,dose-dependently increased the conditioned place preference
(−)-naloxone,attenuation of the endomorphin-1-induced increase of extracellular dopamine,[5]; 40 ng co-administered into the VTA with endomorphin-1 10 μg,attenuated the increase of the extracellular dopamine in the Acb shell
same,block or reversal of the (+)-morphine-induced attenuation of systemic (−)-morphine-produced antinociception,"[1]; Wu et al., 2007",blocked or reversed
Endomorphin-1,extracellular dopamine in the Acb shell,"[5]; 10 μg into the VTA, 15 min after injection",caused an increase of the extracellular dopamine in the Acb shell
same,time for the dopamine level to return to baseline,"[5]; 10 μg into the VTA, thereafter",60 min
